Test results as given in patent US7060677B1, “Antimicrobial activity of the first cationic cluster of human lactoferrin” (priority 1999, dated 2006).
Peptide text beside a SMILES is read from it.

How the values were obtained:
[1] = tested on: the various bacteria (L. monocytogenes, antibiotic resistant S. aureus, K. pneumoniae, E. coli); assay: Assay for antibacterial activity, statements on the various bacteria together; type: cell-based; conditions: FIGS. 2A–2D: 7 μM peptide, 1 h at 37° C., NaPB-TSB
Experimental: Listeria monocytogenes strain EGD. Klebsiella pneumoniae (43816), and Escherichia coli O54 were purchased from the American Type Culture Collection (Rockville, Md.). Antibiotic resistant S. aureus, K. pneumoniae and E. coli were cultured overnight in nutrient broth (Oxoid, Basingstoke, UK) at 37° C., diluted in tryptase soya broth (TSB, Oxoid) and cultured for an additional 2 h in a shaking waterbath at 37° C. L. monocytogenes was cultured overnight in brain heart infusion broth (BHI, Oxoid) at 37° C. diluted and cultured for an additional 2 h in a shaking waterbath at 37° C.
In short, bacteria were washed with phosphate-buffered saline (PBS) (pH 7.4) and diluted to a concentration of approximately 2×10^6 CFU/ml of phosphate-buffered saline (pH 6.0) supplemented with 0.1% (v/v) Tween-20 (hereafter designated as PBS-Tw). […] At various time intervals (range 0–4 h) after incubation at 37° C. the number of viable bacteria was determined microbiologically. As negative controls, bovine serum albumin (BSA; Sigma) or no peptide were included.

[2] = Pharmacology of 99mTc-labeled hLF and peptides by scintigraphy in infected mice
Experimental: Lactoferrins and related peptides were labeled with ^99mTechnetium (^99mTc) as described (22, 23). Briefly, 10 μl of a peptide solution (1 mg/ml of HAc) was added to 2 μl of an aseptic solution of 0.5 mg of stannous pyrophosphate/ml (Dept. of Clinical Pharmacy and Toxicology. Leiden University Medical Center (LUMC). Leiden. The Netherlands). Immediately thereafter, 4 μl of a solution of 10 mg of KBH4 (crystalline. Sigma) per ml of 0.1 M NaOH was added. After addition of 0.1 ml of ^99mTc-sodium pertechnetate solution (200 MBq/ml. Mallinckrodt Medical BV, Petten, The Netherlands), the mixture was gently stirred at ambient temperature for 30 min and then was ready for use. Quality control of the labeling was performed by RP-HPLC analysis using a Sep-Pak C18 cartridge (Waters, Milford, Mass.) in 20 ml of 0.01 M HAc. After rinsing with 20 ml of 0.01 M HAc, proteins and peptides were eluted with 2 ml of methanol (Sigma).
The mice were placed in supine position on a planar gamma camera (Toshiba GCA 7100/UI. Tokyo, Japan) with both hind legs spread out and fixed with surgical tape. Continuous whole body acquisitions of the mice of each 60 s during the first hour after injection of the tracer were made with the gamma camera, equipped with a low-energy general purpose parallel-hole collimator. […] The energy peak was set at 140 keV with a window of 20%.
(§1) On the scintigrams, anatomically adjusted regions of interest (ROI) were drawn over the various organs and both thighs providing data about clearance of ^99mTc-peptides and accumulation at the site of infection. […] The amount of radioactivity in the heart was corrected for decay and expressed as a percentage of injected dose (% ID).

bacterial infection = assay: Imaging microbial infections with 99mTc-labeled hLF and peptides; conditions: as described in Example VI
Description: The mice were placed in supine position on a planar gamma camera (Toshiba GCA 7100/UI. Tokyo, Japan) with both hind legs spread out and fixed with surgical tape. Continuous whole body acquisitions of the mice of each 60 s during the first hour after injection of the tracer were made with the gamma camera, equipped with a low-energy general purpose parallel-hole collimator. The camera was connected to a computer (GMS 5500 UI, Toshiba) and high-resolution images of the animals were stored as a 256×256 matrix. The energy peak was set at 140 keV with a window of 20%.
as §1

**Q.** Which “Bactericidal activity of synthetic peptides against the various bacteria (in words)” value [1] does the source give for “hLF(5–11): synthetic fragment of hLF(1–11): residues 5–11 of hLF (SVQWCAV; UniProt P02788 24-30, looked up, fragment)” here?
**A.** The value was “ineffective”.

**Q.** With `CC(C)[C@H](NC(=O)[C@H](CO)NC(=O)[C@H](CCCNC(=N)N)NC(=O)[C@@H](N)CCCNC(=N)N)C(=O)N[C@@H](CCC(N)=O)C(=O)N[C@@H](Cc1c[nH]c2ccccc12)C(=O)N[C@@H](CS)C(=O)N[C@@H](C)C(=O)O` [hLF(4–11)] (H-RRSVQWCA-OH; N-terminus and C-terminus assumed) as the compound, how does the “mean t1/2 of removal from the circulation” value ([2]; Swiss, mouse, in vivo) read?
**A.** The value was “approximately 1 min”.

**Q.** Which results are given for `CC(C)[C@H](NC(=O)[C@H](CO)NC(=O)[C@H](CCCNC(=N)N)NC(=O)[C@H](CCCNC(=N)N)NC(=O)[C@H](CCCNC(=N)N)NC(=O)[C@H](CCCNC(=N)N)NC(=O)CN)C(=O)N[C@@H](CCC(N)=O)C(=O)N[C@@H](Cc1c[nH]c2ccccc12)C(=O)N[C@@H](CS)C(=O)N[C@@H](C)C(=O)O` [hLF(1–11)] (H-GRRRRSVQWCA-OH; N-terminus and C-terminus assumed)?
**A.** mean t1/2 of removal from the circulation ([2]; 99mTc-labeled, S. aureus infected mice, n=3, radioactivity over the heart in first hour): ~9 min; Accumulation at the site of infection (in words) (bacterial infection): rapidly accumulate at the site of infection

**Q.** For “hLF(6–11): synthetic fragment of hLF(1–11): residues 6–11 of hLF (VQWCAV; UniProt P02788 25-30, looked up, fragment)”, which “Bactericidal activity of synthetic peptides against the various bacteria (in words)” value [1] is on record?
**A.** Its value is “ineffective”.

**Q.** Which “Accumulation at the site of infection (in words)” value (bacterial infection) does the source give for `CC(C)[C@H](NC(=O)[C@H](CO)NC(=O)[C@H](CCCNC(=N)N)NC(=O)[C@H](CCCNC(=N)N)NC(=O)[C@H](CCCNC(=N)N)NC(=O)[C@@H](N)CCCNC(=N)N)C(=O)N[C@@H](CCC(N)=O)C(=O)N[C@@H](Cc1c[nH]c2ccccc12)C(=O)N[C@@H](CS)C(=O)N[C@@H](C)C(=O)O` [hLF(2–11)] (H-RRRRSVQWCA-OH; N-terminus and C-terminus assumed) here?
**A.** The value was “rapidly accumulate at the site of infection”.

**Q.** For `CSCC[C@H](NC(=O)[C@H](CC(N)=O)NC(=O)[C@H](CCCNC(=N)N)NC(=O)[C@H](CCC(N)=O)NC(=O)[C@H](Cc1c[nH]c2ccccc12)NC(=O)[C@H](CCC(N)=O)NC(=O)[C@@H](N)Cc1ccccc1)C(=O)N[C@@H](CCCNC(=N)N)C(=O)N[C@@H](CCCCN)C(=O)N[C@H](C(=O)N[C@@H](CCCNC(=N)N)C(=O)O)C(C)C` [hLF(21–31), reference compound] (H-FQWQRNMRKVR-OH; N-terminus and C-terminus assumed), which “mean t1/2 of removal from the circulation” value ([2]; Swiss, mouse, in vivo) is on record?
**A.** The value was ~2 min.

**Q.** With `CC(C)[C@H](NC(=O)[C@H](CO)NC(=O)[C@H](CCCNC(=N)N)NC(=O)[C@H](CCCNC(=N)N)NC(=O)[C@@H](N)CCCNC(=N)N)C(=O)N[C@@H](CCC(N)=O)C(=O)N[C@@H](Cc1c[nH]c2ccccc12)C(=O)N[C@@H](CS)C(=O)N[C@@H](C)C(=O)O` [hLF(3–11)] (H-RRRSVQWCA-OH; N-terminus and C-terminus assumed) as the compound, how does the “Accumulation at the site of infection (in words)” value (bacterial infection) read?
**A.** Its value is “rapidly accumulate at the site of infection”.
